# What was measured:
# [1] = Cytotoxicity against human MEL28 cells; conditions: SK-MEL-28
# [2] = tested on: DU-145; assay: Cytotoxicity against human DU145 cells; format: functional, cell-based; conditions: Homo sapiens, DU-145
# [3] = tested on: HT-29; assay: Cytotoxicity against human HT29 cells; format: functional, cell-based; conditions: Homo sapiens, HT-29; for EC50: read-out: ED50 (the source's name)
# [4] = tested on: A549; assay: Cytotoxicity against human A549 cells; format: functional, cell-based; conditions: Homo sapiens, A549; for EC50: read-out: ED50 (the source's name)
# [5] = tested on: P388; assay: Cytotoxicity against mouse P388 cells; format: functional, cell-based; conditions: Mus musculus, P388; for EC50: read-out: ED50 (the source's name)
# [6] = tested on: L1210; assay: Cytotoxicity against mouse L1210 cells; format: functional, cell-based; conditions: Mus musculus, L1210
# [7] = tested on: LoVo; assay: Cytotoxicity against human LoVo cells; format: functional
# [8] = tested on: KB; assay: Cytotoxicity against human KB cells; format: functional, cell-based; conditions: Homo sapiens; for EC50: KB, read-out: ED50 (the source's name)
# [9] = Cytotoxicity against mouse Ehrlich Ascites carcinoma by trypan blue exclusion assay; format: functional
structure (smiles),measurement,setting,value
C=CCCC/C=C/C=C\CCCCCCCC[C@H]1CC[C@@H]([C@H]2CC[C@@H](CC(=O)O)OO2)O1 [STOLONOXIDE B],IC50,[1],0.1 µg/mL
same,IC50,[2],0.1 µg/mL
same,IC50,[3],0.1 µg/mL
same,IC50,[4],0.1 µg/mL
same,IC50,[5],0.05 µg/mL
CC(CCCC/C=C/CC/C=C\c1ccccc1)C[C@]1(C)C[C@@](C)(CC(=O)O)OO1 (some centres undefined) [PLAKINIC ACID C],IC50,[6],0.017 µg/mL
same,MIC,[7],0.1 µg/mL
same,MIC,[8],0.01 µg/mL
C=CCC/C=C\C=C/CCCCCCCC[C@@H]1CC[C@@H]([C@@H]2CC[C@@H](CC(=O)OC)OO2)O1,IC50,[1],0.1 µg/mL
same,IC50,[2],0.1 µg/mL
same,IC50,[3],0.1 µg/mL
same,IC50,[4],0.1 µg/mL
same,IC50,[5],0.05 µg/mL
C=C1C(=O)O[C@H]2C[C@](C)(O)CCC[C@](C)(OO)C/C=C/[C@@]3(C)O[C@H]3C[C@@H]12,IC50,[5],0.1 µg/mL
C=C(CCC[C@@]1(C)CC[C@H]([C@H](C)C(=O)OC)OO1)CCC1(O)C(=C)CCCC1(C)C (some centres undefined) [TASNEMOXIDE C],IC50,[3],> 1 µg/mL
same,IC50,[4],> 1 µg/mL
same,IC50,[5],> 1 µg/mL
COC(=O)C[C@@]1(C)C[C@](C)(CC(C)CCCCCCCCc2ccccc2)OO1 (some centres undefined) [EPIPLAKINIC ACID E],IC50,[4],2.5 µg/mL
same,IC50,[5],2 µg/mL
C/C=C/C=C/CCCCCCCCCCCCC[C@]1(OC)C=C[C@@H](CC(=O)OC)OO1 [XESTIN A],IC50,[5],0.3 µg/mL
C=C1CC[C@H](OO)C(=C)CCC2=C(C(C)C)C(=O)C[C@]2(C)CC1=O,EC50,[3],0.31 µg/mL
same,EC50,[4],0.56 µg/mL
same,EC50,[5],0.052 µg/mL
CC1=C(CCC(C)(O)/C=C/C[C@@]2(C)CC[C@H]([C@H](C)C(=O)O)OO2)C(C)(C)CCC1 (some centres undefined) [TASNEMOXIDE A],IC50,[3],> 1 µg/mL
same,IC50,[4],> 1 µg/mL
same,IC50,[5],> 1 µg/mL
CCCCCCCC/C=C/C(=O)O[C@@H]1[C@@H](C)[C@@]2(O)[C@H]([C@@H]3C(C)(C)[C@]13OC(C)=O)[C@@H](OO)C(CO)=C[C@]1(O)C(=O)C(C)=C[C@@H]21 [OSTODIN],EC50,[8],≤ 4000 µg/mL
same,EC50,[5],≤ 4000 µg/mL
COC(=O)C[C@@]1(C)C[C@@](C)(CC(C)CC/C=C/CC/C=C/c2ccccc2)OO1 (some centres undefined),IC50,[6],0.003 µg/mL
same,MIC,[7],0.1 µg/mL
same,MIC,[8],0.1 µg/mL
C/C=C/C=C/CCCCCCCCCCC[C@]1(OC)C=C[C@H](CC(=O)OC)OO1,EC50,[5],> 10 µg/mL
COC(=O)[C@@H](C)[C@@H]1CC[C@](C)(CCC(=O)C(C)(C)CCCC(C)=O)OO1 [DIACARPEROXIDE B],IC50,[3],> 1 µg/mL
same,IC50,[4],> 1 µg/mL
same,IC50,[5],> 1 µg/mL
COC(=O)C[C@@]1(C)C[C@@](C)(CC(C)CCCC/C=C/CC/C=C\c2ccccc2)OO1 (some centres undefined),IC50,[6],0.29 µg/mL
same,MIC,[7],1 µg/mL
same,MIC,[8],0.1 µg/mL
CC(=O)CCCC(C)(C)C(=O)CC/C(C)=C/CC[C@@]1(C)CC[C@H]([C@H](C)C(=O)O)OO1 [AIKUPIKOXIDE A],IC50,[3],> 1 µg/mL
same,IC50,[4],> 1 µg/mL
same,IC50,[5],> 1 µg/mL
CC(=O)[C@@H]1CC[C@@H](C)[C@@H]2CC[C@]3(C)OO[C@@]12C(=O)O3,IC50,[9],> 175 µM
same,IC80,[9],> 175 µM
C=CCCC/C=C/C=C\CCCCCCCC[C@@H]1CC[C@@H]([C@@H]2CC[C@@H](CC(=O)[O-])OO2)O1.[Na+],IC50,[2],0.1 µg/mL
same,IC50,[3],0.1 µg/mL
same,IC50,[4],0.1 µg/mL
same,IC50,[5],0.01 µg/mL
C=C(CCC1=C(C)CCCC1(C)C)C(O)CC[C@@]1(C)CC[C@H]([C@H](C)C(=O)O)OO1 (some centres undefined) [TASNEMOXIDE B],IC50,[3],> 1 µg/mL
same,IC50,[4],> 1 µg/mL
same,IC50,[5],> 1 µg/mL
C=C(C)C(CC[C@@H](C)[C@H]1CC[C@H]2[C@@H]3CC=C4C[C@@H](O)CC[C@]4(C)[C@H]3CC[C@]12C)OO (some centres undefined),EC50,[3],0.43 µg/mL
same,EC50,[4],0.64 µg/mL
same,EC50,[8],0.33 µg/mL
same,EC50,[5],0.26 µg/mL
C=C(C)C(CC[C@@H](C)[C@H]1CC[C@H]2[C@@H]3C[C@@H](O)C4=CC(=O)CC[C@]4(C)[C@H]3CC[C@]12C)OO (some centres undefined),EC50,[3],0.47 µg/mL
same,EC50,[4],0.58 µg/mL
same,EC50,[8],0.79 µg/mL
same,EC50,[5],0.22 µg/mL
C/C=C/C=C/CCCCCCCCCCCCC[C@@]1(OC)C=C[C@@H](CC(=O)OC)OO1 [XESTIN B],IC50,[5],3 µg/mL
C[C@@H]1CCC2[C@@H](C)[C@H](O[C@@H]3O[C@H]4O[C@@]5(C)CC[C@@H]6[C@@H](C)CCC([C@@H]3C)[C@]46OO5)O[C@@H]3O[C@]4(C)CC[C@@H]1[C@@]23OO4 (some centres undefined),IC50,[9],1.4 µM
same,IC80,[9],2.4 µM
CC/C=C/C(CC)CC(C)CC1(CC)C=C(CC)C(CC(=O)OC)OO1 (centres undefined),IC50,[5],0.055 µg/mL
CC(=O)[C@@H]1CC[C@@H](C)[C@@H]2CC[C@]3(C)OO[C@@]12[C@H](OC=O)O3,IC50,[9],91 µM
same,IC80,[9],156 µM
